Assay results from publication PMC9149120 (Cell, 2022).
Peptide text beside a SMILES is read from it. * marks the point of attachment. Cbz = O=C(OCc1ccccc1)*; CH2F = FC*

What was measured:
cortical neurons = experiment: Nuclear translocation of AIF and PAAN/MIF after α-syn PFF; type: cell-based, mouse; details: n = 3
HT 22 cells = experiment: TNF-α and Z-VAD-induced necroptosis, Alamar blue; type: cell-based; details: 1 ng/mL TNF-α with 50 μM z-VAD, n = 3; Figure S4G
[1] = tested on: PC-3 prostate cancer cells; experiment: Tumor cell viability alone or with alantolactone; type: cell-based; details: 0.5–8 μM combined with 10 μM ATL, 72 h, n = 3; Figure S5D
human cortical neurons = experiment: Human α-syn PFF-induced cell death, Hoechst/PI staining; type: cell-based; details: 0.5 or 1 μM, pre-incubated 1 h, human α-syn PFF 14 days, n = 4; Figure 3G
SH-SY5Y cells [2] = experiment: Staurosporine; type: cell-based; details: 0.5 μM STS, n = 3; Figure S4F
primary cortical neurons = experiment: α-syn PFF-induced PARP activation; type: cell-based, mouse; details: AP5 50 μM or NBQX 10 μM pre-incubated 1 h, α-syn PFF 3 days, n = 3; Figure S3A
SH-SY5Y cells [3] = experiment: MNNG-induced parthanatic cell death, Alamar blue viability; type: cell-based; details: for inhibition of MNNG-induced parthanatic cell death: 0.5 or 1 μM, 50 μM MNNG 15 min, n = 4, Figure S5I; for inhibition of parthanatic cell death by MIF tautomerase inhibitors: 10 μM p-425, 50 μM ISO-1, 10 μM AV411, 50 μM MNNG 15 min, n = 5, Figure 4J
PAAN/MIF nuclease = molecular target: T1, PAAN/MIF nuclease (Homo sapiens, UniProt P14174); experiment: In vitro PAAN/MIF nuclease assay; type: biochemical; details: for inhibition of PAAN/MIF nuclease activity: PS30 substrate, indicated doses, n = 4, Figure 4H; for inhibition of the nuclease activity of PAAN/MIF by MIF tautomerase inhibitors: 10 μM p-425, 50 μM ISO-1, 10 μM AV411, n = 5, Figure 4I
T1 sequence (P14174 1-115): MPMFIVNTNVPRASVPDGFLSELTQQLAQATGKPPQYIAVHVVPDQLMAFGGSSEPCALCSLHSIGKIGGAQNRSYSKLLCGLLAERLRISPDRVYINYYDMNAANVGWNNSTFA

With `C[C@]1(c2nc3c(C(N)=O)cccc3[nH]2)CCCN1` [ABT-888] the “α-syn PFF-induced nuclear translocation of PAAN/MIF and AIF” value (cortical neurons; ABT-888 1 μM, Figure 2A) was “attenuated”, the “prevention of TNF-α and Z-VAD-induced necroptosis” value (HT 22 cells) was “not prevented” and the “tumor toxicity induced by alantolactone (ATL)” value [1] was “enhancement of tumor toxicity”. For the same molecule, the “protection against cell death” value (human cortical neurons) was “protected against cell death” and the “inhibition of staurosporine (STS)-induced apoptotic cell death” value (SH-SY5Y cells [2]) was “did not inhibit”.
With `NC(CCCP(=O)(O)O)C(=O)O` (centres unmarked) [AP5] the “nuclear translocation of AIF and MIF” value (cortical neurons; AP5 50 μM or NBQX 10 μM pretreatment, Figure S3B) was “attenuated” and the “α-syn PFF-induced PARP activation” value (primary cortical neurons) was “inhibited”.
For `C=CC[C@@H]1/C=C(\C)C[C@H](C)C[C@H](OC)[C@H]2O[C@@](O)(C(=O)C(=O)N3CCCC[C@H]3C(=O)O[C@H](/C(C)=C/[C@@H]3CC[C@@H](O)[C@H](OC)C3)[C@H](C)[C@@H](O)CC1=O)[C@H](C)C[C@@H]2OC` [FK506], the “inhibition of MNNG-induced parthanatic cell death” value (SH-SY5Y cells [3]) was “failed to inhibit” and the “inhibition of PAAN/MIF nuclease activity” value (PAAN/MIF nuclease) was “failed to inhibit”.
With `COC(=O)CC1CC(c2ccc(O)cc2)=NO1` (centres unmarked) [ISO-1] the “inhibition of parthanatic cell death by MIF tautomerase inhibitors” value (SH-SY5Y cells [3]) was “failed to inhibit” and the “inhibition of the nuclease activity of PAAN/MIF by MIF tautomerase inhibitors” value (PAAN/MIF nuclease) was “failed to inhibit”.
`CC(C)C(=O)c1c(C(C)C)nn2ccccc12` [Ibudilast] was tested, and the “inhibition of parthanatic cell death by MIF tautomerase inhibitors” value (SH-SY5Y cells [3]) was “failed to inhibit” and the “inhibition of the nuclease activity of PAAN/MIF by MIF tautomerase inhibitors” value (PAAN/MIF nuclease) was “failed to inhibit”.
For `CN1C(=O)C(Cc2c[nH]c3ccccc23)NC1=S` (centres unmarked) [Nec-1], the “prevention of TNF-α and Z-VAD-induced necroptosis” value (HT 22 cells) was “prevented necroptosis”.
`COC(=O)C[C@H](NC(=O)[C@H](C)NC(=O)[C@@H](NC(=O)OCc1ccccc1)C(C)C)C(=O)CF` [Z-VAD] (Cbz-Val-Ala-Asp(OMe)-CH2F) was tested, and the “inhibition of staurosporine (STS)-induced apoptotic cell death” value (SH-SY5Y cells [2]) was “prevented”.
`CO[C@H]1C[C@@H]2CC[C@@H](C)[C@@](O)(O2)C(=O)C(=O)N2CCCC[C@H]2C(=O)O[C@H]([C@H](C)C[C@@H]2CC[C@@H](O)[C@H](OC)C2)CC(=O)[C@H](C)/C=C(\C)[C@@H](O)[C@@H](OC)C(=O)[C@H](C)C[C@H](C)/C=C/C=C/C=C/1C` [rapamycin] was tested, and the “inhibition of MNNG-induced parthanatic cell death” value (SH-SY5Y cells [3]) was “failed to inhibit” and the “inhibition of PAAN/MIF nuclease activity” value (PAAN/MIF nuclease) was “failed to inhibit”.
